Test results published in the NIST ThermoML archive (doi:10.1021/je201334p).

How the values were obtained:
[1] = refractive index (Na D-line) (dimensionless); xn = mol fraction of the nth substance listed; details: 101 kPa, Liquid, Standard Abbe refractometry
[2] = xn = mol fraction of the nth substance listed; details: 101 kPa, Liquid; for speed of sound: Sing-around technique in a fixed-path interferometer; for mass density: Vibrating tube method

CCCC[N+]1(C)CCCC1.O=S(=O)([O-])C(F)(F)F [1-butyl-1-methylpyrrolidinium trifluoromethanesulfonate] + O
Details	mass density, 288.15 K [kg/m3]	mass density, 298.15 K [kg/m3]	mass density, 308.15 K [kg/m3]	refractive index, 288.15 K	refractive index, 298.15 K	refractive index, 308.15 K	speed of sound, 288.15 K [m/s]	speed of sound, 298.15 K [m/s]	speed of sound, 308.15 K [m/s]
[1], x2 = 0	–	–	–	1.43557	1.43289	1.43018	–	–	–
[1], x2 = 0.0559	–	–	–	1.43506	1.4324	1.4297	–	–	–
[1], x2 = 0.1084	–	–	–	1.43458	1.43187	1.42918	–	–	–
[1], x2 = 0.2076	–	–	–	1.43345	1.43075	1.42808	–	–	–
[1], x2 = 0.2997	–	–	–	1.43221	1.42951	1.42683	–	–	–
[1], x2 = 0.408	–	–	–	1.43031	1.42762	1.4249	–	–	–
[1], x2 = 0.5038	–	–	–	1.42809	1.42536	1.42262	–	–	–
[1], x2 = 0.6003	–	–	–	1.42501	1.42221	1.41943	–	–	–
[1], x2 = 0.7052	–	–	–	1.41987	1.41708	1.4143	–	–	–
[1], x2 = 0.8095	–	–	–	1.41085	1.40814	1.40557	–	–	–
[1], x2 = 0.9018	–	–	–	1.39398	1.39161	1.38937	–	–	–
[1], x2 = 0.9533	–	–	–	1.37399	1.3721	1.37023	–	–	–
[2], x2 = 0	1260.33	1252.98	1245.78	–	–	–	1484.6	1460.1	1436.7
[2], x2 = 0.0559	1259.04	1251.78	1244.55	–	–	–	1486.9	1462.7	1439.7
[2], x2 = 0.1084	1257.8	1250.57	1243.3	–	–	–	1489.1	1464.9	1441.5
[2], x2 = 0.2076	1255.12	1247.82	1240.51	–	–	–	1494.5	1470.5	1447.2
[2], x2 = 0.2997	1252.05	1244.68	1237.3	–	–	–	1500.7	1476.9	1453.6
[2], x2 = 0.408	1247.41	1239.95	1232.47	–	–	–	1509.8	1486.1	1462.8
[2], x2 = 0.5038	1241.91	1234.36	1226.79	–	–	–	1520.1	1496.5	1473.2
[2], x2 = 0.6003	1234.21	1226.56	1218.89	–	–	–	1533.3	1510	1486.7
[2], x2 = 0.7052	1221.39	1213.67	1205.88	–	–	–	1552.3	1529.6	1506.6
[2], x2 = 0.8095	1198.77	1191.13	1183.37	–	–	–	1576.2	1555.8	1534.6
[2], x2 = 0.9018	1155.9	1148.95	1141.73	–	–	–	1595.4	1582.1	1566.6
[2], x2 = 0.9533	1104.38	1098.73	1092.63	–	–	–	1592.8	1589.4	1582.8

CCCCn1cc[n+](C)c1.N#CN=C=[N-] [1-butyl-3-methylimidazolium dicyanamide] + O
Details	mass density, 288.15 K [kg/m3]	mass density, 298.15 K [kg/m3]	mass density, 308.15 K [kg/m3]	refractive index, 288.15 K	refractive index, 298.15 K	refractive index, 308.15 K	speed of sound, 288.15 K [m/s]	speed of sound, 298.15 K [m/s]	speed of sound, 308.15 K [m/s]
[1], x2 = 0	–	–	–	1.51213	1.50893	1.50578	–	–	–
[1], x2 = 0.1088	–	–	–	1.5099	1.50673	1.50348	–	–	–
[1], x2 = 0.1227	–	–	–	1.50953	1.50631	1.50321	–	–	–
[1], x2 = 0.2017	–	–	–	1.50758	1.50443	1.50114	–	–	–
[1], x2 = 0.2943	–	–	–	1.50476	1.50161	1.49821	–	–	–
[1], x2 = 0.3952	–	–	–	1.50075	1.49756	1.49443	–	–	–
[1], x2 = 0.503	–	–	–	1.49536	1.49223	1.48897	–	–	–
[1], x2 = 0.5985	–	–	–	1.48855	1.48541	1.48225	–	–	–
[1], x2 = 0.7032	–	–	–	1.47799	1.47495	1.47147	–	–	–
[1], x2 = 0.805	–	–	–	1.46004	1.45694	1.45386	–	–	–
[1], x2 = 0.9006	–	–	–	1.42867	1.42613	1.42382	–	–	–
[1], x2 = 0.9503	–	–	–	1.39733	1.3952	1.39322	–	–	–
[2], x2 = 0	1066.58	1060.17	1053.83	–	–	–	1764.3	1738.1	1713.1
[2], x2 = 0.1088	1065.59	1059.16	1052.79	–	–	–	1762	1736.9	1712.4
[2], x2 = 0.1227	1065.44	1059.01	1052.64	–	–	–	1761.9	1736.8	1712.2
[2], x2 = 0.2017	1064.62	1058.16	1051.77	–	–	–	1760.9	1735.9	1711.6
[2], x2 = 0.2943	1063.46	1056.98	1050.55	–	–	–	1759.9	1735	1710.7
[2], x2 = 0.3952	1061.88	1055.35	1048.88	–	–	–	1758.3	1734	1710
[2], x2 = 0.503	1059.83	1053.24	1046.7	–	–	–	1756.8	1733	1709.4
[2], x2 = 0.5985	1057.37	1050.71	1044.09	–	–	–	1755.5	1732.1	1709
[2], x2 = 0.7032	1053.63	1046.89	1040.15	–	–	–	1751.4	1729.1	1706.9
[2], x2 = 0.805	1047.26	1040.5	1033.69	–	–	–	1738.5	1718.6	1698.2
[2], x2 = 0.9006	1035.92	1029.6	1023.11	–	–	–	1694.1	1682.2	1668.8
[2], x2 = 0.9503	1024.07	1018.75	1013.06	–	–	–	1630.6	1630.5	1627.4
